Measurements taken from patent US10670605B2, “Cysteine reactive probes and uses thereof” (The Scripps Research Institute, priority 2015, dated 2020).

What was measured:
Experiment in all cases: Competitive isoTOP-ABPP in situ (fragment-treated cells)
Format in all cases: cell-based
[1] = target: cysteines in MDA-MB-231 and Ramos cells (Homo sapiens, UniProt P35658)
[2] = target: T1, cysteines in MDA-MB-231 and Ramos cells (Homo sapiens, UniProt Q9P0J1)
T1 sequence (Q9P0J1 72-537): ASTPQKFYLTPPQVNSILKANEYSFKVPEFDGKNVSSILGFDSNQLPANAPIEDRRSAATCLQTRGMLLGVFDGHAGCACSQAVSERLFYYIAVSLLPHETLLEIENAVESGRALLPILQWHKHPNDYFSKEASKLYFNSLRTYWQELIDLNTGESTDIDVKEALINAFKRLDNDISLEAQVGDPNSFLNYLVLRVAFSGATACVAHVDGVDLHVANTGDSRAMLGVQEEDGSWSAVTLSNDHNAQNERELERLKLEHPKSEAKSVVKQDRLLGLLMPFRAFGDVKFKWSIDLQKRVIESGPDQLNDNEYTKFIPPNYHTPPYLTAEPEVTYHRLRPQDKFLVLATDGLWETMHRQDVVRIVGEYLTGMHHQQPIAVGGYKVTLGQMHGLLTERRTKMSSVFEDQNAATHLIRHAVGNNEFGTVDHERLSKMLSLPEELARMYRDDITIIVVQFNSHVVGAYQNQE

[3] = target: T2, cysteines in MDA-MB-231 and Ramos cells (Homo sapiens, UniProt Q01433)
T2 sequence (Q01433 1-825): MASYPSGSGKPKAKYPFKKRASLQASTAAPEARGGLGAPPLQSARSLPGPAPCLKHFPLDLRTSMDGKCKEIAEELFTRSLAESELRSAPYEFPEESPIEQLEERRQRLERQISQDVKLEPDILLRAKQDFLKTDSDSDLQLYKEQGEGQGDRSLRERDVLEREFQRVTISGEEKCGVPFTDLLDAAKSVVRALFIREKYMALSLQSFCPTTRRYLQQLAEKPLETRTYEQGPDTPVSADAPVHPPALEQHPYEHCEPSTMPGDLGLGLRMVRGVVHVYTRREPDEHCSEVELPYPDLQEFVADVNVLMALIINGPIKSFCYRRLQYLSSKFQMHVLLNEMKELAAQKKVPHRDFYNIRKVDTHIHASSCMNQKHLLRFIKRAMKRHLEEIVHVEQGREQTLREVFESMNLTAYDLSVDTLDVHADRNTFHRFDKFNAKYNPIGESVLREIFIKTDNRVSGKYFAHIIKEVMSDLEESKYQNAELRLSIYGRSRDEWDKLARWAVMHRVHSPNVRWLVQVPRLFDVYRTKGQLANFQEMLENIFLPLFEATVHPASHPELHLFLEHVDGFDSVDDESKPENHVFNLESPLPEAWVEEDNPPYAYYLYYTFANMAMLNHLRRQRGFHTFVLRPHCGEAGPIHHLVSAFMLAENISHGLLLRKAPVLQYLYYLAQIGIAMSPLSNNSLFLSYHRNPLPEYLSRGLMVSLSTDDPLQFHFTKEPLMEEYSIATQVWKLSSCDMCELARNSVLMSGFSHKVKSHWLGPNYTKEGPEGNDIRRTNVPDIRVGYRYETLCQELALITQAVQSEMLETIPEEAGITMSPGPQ

[4] = target: T3, cysteines in MDA-MB-231 and Ramos cells (Homo sapiens, UniProt Q8WV74)
T3 sequence (Q8WV74 1-236): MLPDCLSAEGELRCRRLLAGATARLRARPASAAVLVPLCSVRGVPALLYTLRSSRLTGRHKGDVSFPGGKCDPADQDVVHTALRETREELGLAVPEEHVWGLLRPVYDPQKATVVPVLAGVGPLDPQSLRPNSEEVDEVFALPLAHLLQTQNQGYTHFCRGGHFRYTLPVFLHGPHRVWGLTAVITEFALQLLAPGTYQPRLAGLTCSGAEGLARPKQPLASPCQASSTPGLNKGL

[5] = target: T4, cysteines in MDA-MB-231 and Ramos cells (Homo sapiens, UniProt Q9NWA0)
T4 sequence (Q9NWA0 1-146): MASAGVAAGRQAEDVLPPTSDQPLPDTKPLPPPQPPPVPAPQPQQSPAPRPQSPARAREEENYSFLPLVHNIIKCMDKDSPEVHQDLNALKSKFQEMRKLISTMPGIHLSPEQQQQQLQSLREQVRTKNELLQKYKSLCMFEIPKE

[6] = target: cysteines in MDA-MB-231 and Ramos cells (Homo sapiens, UniProt Q15149)
[7] = target: T5, cysteines in MDA-MB-231 and Ramos cells (Homo sapiens, UniProt Q9Y679)
T5 sequence (Q9Y679 1-410): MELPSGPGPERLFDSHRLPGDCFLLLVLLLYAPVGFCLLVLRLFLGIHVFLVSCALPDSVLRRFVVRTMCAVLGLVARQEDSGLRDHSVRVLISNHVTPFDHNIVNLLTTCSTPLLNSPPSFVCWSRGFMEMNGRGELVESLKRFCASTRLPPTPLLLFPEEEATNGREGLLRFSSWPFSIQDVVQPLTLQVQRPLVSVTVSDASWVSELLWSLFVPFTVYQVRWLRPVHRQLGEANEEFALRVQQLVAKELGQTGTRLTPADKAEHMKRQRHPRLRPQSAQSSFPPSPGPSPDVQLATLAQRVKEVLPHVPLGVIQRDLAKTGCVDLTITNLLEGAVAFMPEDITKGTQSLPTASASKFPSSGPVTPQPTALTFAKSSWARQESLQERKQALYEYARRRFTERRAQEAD

[8] = target: cysteines in MDA-MB-231 and Ramos cells (Homo sapiens, UniProt P27707)
cysteines in MDA-MB-231 and Ramos cells (Homo sapiens, UniProt P27707), sequence (P27707 whole entry): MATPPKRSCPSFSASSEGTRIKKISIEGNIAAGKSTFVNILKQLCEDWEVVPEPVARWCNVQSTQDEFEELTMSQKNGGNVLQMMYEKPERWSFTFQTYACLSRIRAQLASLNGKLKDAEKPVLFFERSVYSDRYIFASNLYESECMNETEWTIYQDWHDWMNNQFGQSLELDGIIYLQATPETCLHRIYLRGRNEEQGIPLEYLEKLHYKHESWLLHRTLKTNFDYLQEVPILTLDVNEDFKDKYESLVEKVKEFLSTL

[9] = target: T6, cysteines in MDA-MB-231 and Ramos cells (Homo sapiens, UniProt O00244)
T6 sequence (O00244 1-68): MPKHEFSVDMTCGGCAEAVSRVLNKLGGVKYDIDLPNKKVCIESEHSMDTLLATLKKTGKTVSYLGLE

[10] = target: cysteines in MDA-MB-231 and Ramos cells (Homo sapiens, UniProt P14635)
cysteines in MDA-MB-231 and Ramos cells (Homo sapiens, UniProt P14635), sequence (P14635 whole entry): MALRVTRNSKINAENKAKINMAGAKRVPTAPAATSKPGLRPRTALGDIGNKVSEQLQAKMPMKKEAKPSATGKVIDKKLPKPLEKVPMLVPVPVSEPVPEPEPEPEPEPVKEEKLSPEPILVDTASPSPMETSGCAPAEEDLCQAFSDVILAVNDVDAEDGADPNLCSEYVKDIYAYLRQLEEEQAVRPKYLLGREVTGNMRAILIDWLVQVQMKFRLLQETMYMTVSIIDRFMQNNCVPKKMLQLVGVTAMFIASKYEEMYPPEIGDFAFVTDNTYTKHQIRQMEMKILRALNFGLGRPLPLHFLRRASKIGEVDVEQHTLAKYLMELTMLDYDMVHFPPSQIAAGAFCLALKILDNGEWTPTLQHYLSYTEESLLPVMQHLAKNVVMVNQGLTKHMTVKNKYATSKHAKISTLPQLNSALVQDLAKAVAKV

cysteines in MDA-MB-231 and Ramos cells (Homo sapiens, UniProt P35658), sequence (P35658 whole entry): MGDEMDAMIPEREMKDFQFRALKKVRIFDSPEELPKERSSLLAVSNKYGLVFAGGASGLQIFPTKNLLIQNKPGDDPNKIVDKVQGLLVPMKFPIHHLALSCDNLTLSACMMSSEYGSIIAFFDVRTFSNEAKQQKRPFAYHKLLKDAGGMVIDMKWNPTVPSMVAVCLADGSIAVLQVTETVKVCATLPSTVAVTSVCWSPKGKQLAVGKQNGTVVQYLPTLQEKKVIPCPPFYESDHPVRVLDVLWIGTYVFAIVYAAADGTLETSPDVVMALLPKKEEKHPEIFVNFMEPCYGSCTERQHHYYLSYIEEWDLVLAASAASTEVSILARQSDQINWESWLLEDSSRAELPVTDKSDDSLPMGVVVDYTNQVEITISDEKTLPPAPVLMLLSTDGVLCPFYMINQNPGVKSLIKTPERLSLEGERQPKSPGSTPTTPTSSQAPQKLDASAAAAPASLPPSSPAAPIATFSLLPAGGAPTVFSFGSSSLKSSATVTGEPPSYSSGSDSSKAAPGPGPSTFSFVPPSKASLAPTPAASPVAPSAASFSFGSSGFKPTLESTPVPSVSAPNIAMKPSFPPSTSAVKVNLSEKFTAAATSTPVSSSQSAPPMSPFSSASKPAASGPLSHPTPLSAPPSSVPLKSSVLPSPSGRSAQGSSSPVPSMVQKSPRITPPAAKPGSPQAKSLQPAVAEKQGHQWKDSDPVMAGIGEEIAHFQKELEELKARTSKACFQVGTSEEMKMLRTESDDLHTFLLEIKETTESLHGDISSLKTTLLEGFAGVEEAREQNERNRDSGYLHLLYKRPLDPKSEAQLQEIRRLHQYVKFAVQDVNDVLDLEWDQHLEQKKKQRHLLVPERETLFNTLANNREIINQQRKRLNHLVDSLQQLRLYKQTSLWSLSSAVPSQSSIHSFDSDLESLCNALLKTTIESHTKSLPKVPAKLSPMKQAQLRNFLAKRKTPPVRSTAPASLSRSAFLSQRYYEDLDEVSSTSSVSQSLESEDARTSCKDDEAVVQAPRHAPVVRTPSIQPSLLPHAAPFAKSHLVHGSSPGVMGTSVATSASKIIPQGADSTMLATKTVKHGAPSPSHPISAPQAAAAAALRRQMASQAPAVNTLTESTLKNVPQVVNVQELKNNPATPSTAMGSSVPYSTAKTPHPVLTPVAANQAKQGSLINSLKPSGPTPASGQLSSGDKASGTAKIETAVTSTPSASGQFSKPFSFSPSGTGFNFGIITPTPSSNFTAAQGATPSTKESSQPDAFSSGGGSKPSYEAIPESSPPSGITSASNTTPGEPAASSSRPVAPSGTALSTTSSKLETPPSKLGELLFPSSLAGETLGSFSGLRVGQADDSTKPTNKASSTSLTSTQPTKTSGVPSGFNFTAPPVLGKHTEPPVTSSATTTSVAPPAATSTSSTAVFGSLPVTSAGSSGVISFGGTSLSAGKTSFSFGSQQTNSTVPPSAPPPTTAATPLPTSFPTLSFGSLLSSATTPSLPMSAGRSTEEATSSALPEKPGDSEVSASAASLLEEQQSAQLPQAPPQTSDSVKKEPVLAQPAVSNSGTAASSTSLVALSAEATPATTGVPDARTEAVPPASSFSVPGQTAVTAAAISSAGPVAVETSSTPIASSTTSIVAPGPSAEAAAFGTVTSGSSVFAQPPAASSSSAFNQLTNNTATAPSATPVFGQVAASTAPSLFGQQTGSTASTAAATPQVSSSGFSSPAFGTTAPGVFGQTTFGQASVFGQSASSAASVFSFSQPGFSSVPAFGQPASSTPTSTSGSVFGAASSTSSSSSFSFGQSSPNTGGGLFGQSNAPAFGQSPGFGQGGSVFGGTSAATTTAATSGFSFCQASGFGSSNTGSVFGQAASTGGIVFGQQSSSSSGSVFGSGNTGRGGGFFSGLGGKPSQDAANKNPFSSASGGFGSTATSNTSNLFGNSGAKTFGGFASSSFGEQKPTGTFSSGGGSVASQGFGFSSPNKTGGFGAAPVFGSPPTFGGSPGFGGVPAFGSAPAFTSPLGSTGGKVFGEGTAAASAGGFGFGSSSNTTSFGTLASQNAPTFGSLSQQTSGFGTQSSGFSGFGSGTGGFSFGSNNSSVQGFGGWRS

Compound: COc1ccc2c(c1)CCCN2C(=O)CCl [compound 2]
- isoTOP-ABPP reactivity P35658_C728 NUP214 ([1]; 200 μM, insitu, 231): 3.9
- isoTOP-ABPP reactivity Q9P0J1_C149 PDP1 ([2]; 200 μM, insitu, 231): 20.0
- isoTOP-ABPP reactivity Q01433_C107 AMPD2 ([3]; 200 μM, insitu, 231): 4.4
- isoTOP-ABPP reactivity Q8WV74_C207 NUDT8 ([4]; 200 μM, insitu, 231): 20.0
- isoTOP-ABPP reactivity Q9NWA0_0139 MED9 ([5]; 200 μM, insitu, 231): 4.3

Compound: COc1ccc(C2CC(c3cccs3)=NN2C(=O)CCl)cc1 (stereo not shown) [compound 4]
- isoTOP-ABPP reactivity P35658_C728 NUP214 ([1]; 100 μM in situ 231): 1.7
- isoTOP-ABPP reactivity Q15149_C4574 PLEC ([6]; 100 μM in situ 231): 4.2
- isoTOP-ABPP reactivity Q01433_C107 AMPD2 ([3]; 100 μM in situ 231): 2.3
- isoTOP-ABPP reactivity Q8WV74_C207 NUDT8 ([4]; 100 μM in situ 231): 20.0
- isoTOP-ABPP reactivity Q9NWA0_0139 MED9 ([5]; 100 μM in situ 231): 14
- isoTOP-ABPP reactivity Q9Y679_C391 AUP1 ([7]; 100 μM in situ 231): 20.0
- isoTOP-ABPP reactivity P27707_C9 DCK ([8]; 100 μM in situ 231): 1.4

Compound: COc1cc2c(cc1OC)CN(C(=O)CCl)CC2 [compound 8]
- isoTOP-ABPP reactivity Q01433_C107 AMPD2 ([3]; 200 μM, insitu, 231): 6.2
- isoTOP-ABPP reactivity Q8WV74_C207 NUDT8 ([4]; 200 μM, insitu, 231): 20.0
- isoTOP-ABPP reactivity Q9Y679_C391 AUP1 ([7]; 200 μM, insitu, 231): 20.0

Compound: O=C(CCl)N1CCC(Cc2ccccc2)CC1 [compound 9]
- isoTOP-ABPP reactivity Q15149_C4574 PLEC ([6]; 200 μM, insitu, 231): 0.8
- isoTOP-ABPP reactivity Q01433_C107 AMPD2 ([3]; 200 μM, insitu, 231): 3.1
- isoTOP-ABPP reactivity O00244_C12 ATOX1 ([9]; 200 μM, insitu, 231): 4.7
- isoTOP-ABPP reactivity P14635_C238 CCNB1 ([10]; 200 μM, insitu, 231): 3.7
- isoTOP-ABPP reactivity P27707_C9 DCK ([8]; 200 μM, insitu, 231): 4.9

Compound: O=C(CCl)N1CCN(S(=O)(=O)c2ccccc2F)CC1 [compound 10]
- isoTOP-ABPP ratio P35658_C728 ([1]; 200 μM, insitu, 231): 20.0
- isoTOP-ABPP ratio, cysteine Q15149_C4574 ([6]; 200 μM, insitu, 231): 2.2
- isoTOP-ABPP ratio, cysteine Q9P0J1_C149 ([2]; 200 μM, insitu, 231): 18.0
- isoTOP-ABPP ratio, cysteine Q8WV74_C207 ([4]; 200 μM, insitu, ramos): 20.0
- isoTOP-ABPP ratio, cysteine O00244_C12 ([9]; 200 μM, insitu, 231): 2.1
- isoTOP-ABPP ratio, cysteine Q9NWA0_C139 ([5]; 200 μM, insitu, 231): 2.9
- isoTOP-ABPP ratio, cysteine P14635_C238 ([10]; 200 μM, insitu, 231): 6.7
- isoTOP-ABPP ratio P27707_C9 ([8]; 200 μM, insitu, 231): 1.9
- isoTOP-ABPP ratio P27707_C9 ([8]; 200 μM, insitu, ramos): 1.7

Compound: Cn1cc(S(=O)(=O)N2CCOCC2)cc1C(=O)NC(=O)CCl [compound 11]
- isoTOP-ABPP ratio P35658_C728 ([1]; 100 μM in situ 231): 0.8
- isoTOP-ABPP ratio, cysteine Q15149_C4574 ([6]; 100 μM in situ 231): 1.1
- isoTOP-ABPP ratio, cysteine Q9P0J1_C149 ([2]; 100 μM in situ 231): 1.4
- isoTOP-ABPP ratio, cysteine Q01433_C107 ([3]; 100 μM in situ 231): 0.6
- isoTOP-ABPP ratio, cysteine O00244_C12 ([9]; 100 μM in situ 231): 0.7
- isoTOP-ABPP ratio, cysteine Q9Y679_C391 ([7]; 100 μM in situ 231): 3.0
- isoTOP-ABPP ratio, cysteine P14635_C238 ([10]; 100 μM in situ 231): 0.7
- isoTOP-ABPP ratio P27707_C9 ([8]; 100 μM in situ 231): 0.5

Compound: O=C(CCl)NC(=O)NC12CC3CC(CC(C3)C1)C2 [compound 12]
- isoTOP-ABPP ratio, cysteine Q9P0J1_C149 ([2]; 200 μM, insitu, 231): 18.5
- isoTOP-ABPP ratio, cysteine Q9NWA0_C139 ([5]; 200 μM, insitu, 231): 20.0
- isoTOP-ABPP ratio P27707_C9 ([8]; 200 μM, insitu, 231): 1.4

Compound: O=C(CCl)NCCc1c[nH]c2ccccc12 [compound 13]
- isoTOP-ABPP ratio P35658_C728 ([1]; 200 μM, insitu, 231): 1.0
- isoTOP-ABPP ratio, cysteine Q15149_C4574 ([6]; 200 μM, insitu, 231): 1.4
- isoTOP-ABPP ratio, cysteine Q8WV74_C207 ([4]; 200 μM, insitu, 231): 13.1
- isoTOP-ABPP ratio, cysteine O00244_C12 ([9]; 200 μM, insitu, 231): 1.5
- isoTOP-ABPP ratio, cysteine Q9NWA0_C139 ([5]; 200 μM, insitu, 231): 1.1
- isoTOP-ABPP ratio, cysteine P14635_C238 ([10]; 200 μM, insitu, 231): 1.3
- isoTOP-ABPP ratio, cysteine P14635_C238 ([10]; 200 μM, insitu, ramos): 1.5
- isoTOP-ABPP ratio P27707_C9 ([8]; 200 μM, insitu, 231): 1.0
- isoTOP-ABPP ratio P27707_C9 ([8]; 200 μM, insitu, ramos): 1.3
